Data reported in ChEMBL document CHEMBL4804284.

How the values were obtained:
Design in all cases: scale not given: the % may be the effect or the level left
[1] = target: Fibroblast growth factor receptor 1 (Homo sapiens) (UniProt P11362); assay: Inhibition of DNA-tagged human FGFR1 assessed as percent of control at 50000 nM by qPCR analysis relative to control
[2] = target: Ephrin type-B receptor 6 (Homo sapiens) (UniProt O15197); assay: Inhibition of DNA-tagged human EPHB6 assessed as percent of control at 50000 nM by qPCR analysis relative to control
[3] = target: Ephrin type-A receptor 6 (Homo sapiens) (UniProt Q9UF33); assay: Inhibition of DNA-tagged human EPHA6 assessed as percent of control at 50000 nM by qPCR analysis relative to control
Sequence of Ephrin type-A receptor 6 (Homo sapiens) (Q9UF33 whole entry): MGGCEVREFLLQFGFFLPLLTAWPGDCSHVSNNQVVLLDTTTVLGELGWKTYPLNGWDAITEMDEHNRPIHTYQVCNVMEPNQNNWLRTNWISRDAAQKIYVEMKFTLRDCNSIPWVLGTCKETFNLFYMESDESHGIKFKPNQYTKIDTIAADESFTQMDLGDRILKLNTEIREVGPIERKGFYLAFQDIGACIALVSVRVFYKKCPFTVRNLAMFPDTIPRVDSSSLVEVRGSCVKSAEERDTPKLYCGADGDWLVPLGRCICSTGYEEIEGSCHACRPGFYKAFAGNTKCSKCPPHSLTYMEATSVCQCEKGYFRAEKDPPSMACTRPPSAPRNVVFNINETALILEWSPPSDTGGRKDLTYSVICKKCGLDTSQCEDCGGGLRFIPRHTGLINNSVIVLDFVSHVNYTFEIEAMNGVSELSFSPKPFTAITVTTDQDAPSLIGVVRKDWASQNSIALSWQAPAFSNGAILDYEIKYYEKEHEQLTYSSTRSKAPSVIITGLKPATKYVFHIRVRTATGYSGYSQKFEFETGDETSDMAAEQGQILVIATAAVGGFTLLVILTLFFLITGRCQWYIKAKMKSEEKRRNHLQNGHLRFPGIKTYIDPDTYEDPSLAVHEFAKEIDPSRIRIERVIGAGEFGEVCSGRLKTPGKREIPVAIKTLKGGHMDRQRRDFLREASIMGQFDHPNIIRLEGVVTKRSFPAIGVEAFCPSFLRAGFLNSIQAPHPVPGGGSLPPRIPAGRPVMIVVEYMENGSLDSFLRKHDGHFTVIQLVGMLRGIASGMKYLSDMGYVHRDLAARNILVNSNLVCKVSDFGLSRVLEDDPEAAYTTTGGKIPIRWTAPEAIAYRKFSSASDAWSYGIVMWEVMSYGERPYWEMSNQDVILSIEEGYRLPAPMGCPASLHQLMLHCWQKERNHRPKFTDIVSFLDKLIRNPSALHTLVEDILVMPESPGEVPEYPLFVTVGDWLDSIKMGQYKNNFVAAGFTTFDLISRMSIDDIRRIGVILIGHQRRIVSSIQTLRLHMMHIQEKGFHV

[4] = target: Eukaryotic translation initiation factor 2-alpha kinase 1 (Homo sapiens) (UniProt Q9BQI3); assay: Inhibition of DNA-tagged human EIF2AK1 assessed as percent of control at 50000 nM by qPCR analysis relative to control
Sequence of Eukaryotic translation initiation factor 2-alpha kinase 1 (Homo sapiens) (Q9BQI3 whole entry): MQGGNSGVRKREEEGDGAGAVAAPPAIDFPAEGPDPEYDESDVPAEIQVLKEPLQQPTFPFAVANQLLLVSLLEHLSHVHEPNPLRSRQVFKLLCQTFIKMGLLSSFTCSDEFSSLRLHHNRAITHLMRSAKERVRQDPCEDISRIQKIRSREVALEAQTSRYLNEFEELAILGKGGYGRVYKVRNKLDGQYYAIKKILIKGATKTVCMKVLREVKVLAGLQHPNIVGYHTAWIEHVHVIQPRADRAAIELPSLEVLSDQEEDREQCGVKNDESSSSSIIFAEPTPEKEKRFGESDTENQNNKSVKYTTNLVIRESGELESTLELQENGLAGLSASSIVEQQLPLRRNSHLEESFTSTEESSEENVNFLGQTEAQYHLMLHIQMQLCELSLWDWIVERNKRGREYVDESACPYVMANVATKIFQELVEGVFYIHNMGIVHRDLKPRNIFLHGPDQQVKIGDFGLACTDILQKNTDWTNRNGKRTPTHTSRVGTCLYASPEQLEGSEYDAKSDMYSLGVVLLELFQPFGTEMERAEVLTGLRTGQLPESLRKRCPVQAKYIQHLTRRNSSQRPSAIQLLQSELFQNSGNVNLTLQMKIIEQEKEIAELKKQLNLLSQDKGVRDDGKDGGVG

[5] = target: Epidermal growth factor receptor (Homo sapiens) (UniProt P00533); assay: Inhibition of DNA-tagged human EGFR assessed as percent of control at 50000 nM by qPCR analysis relative to control
[6] = target: Discoidin domain-containing receptor 2 (Homo sapiens) (UniProt Q16832); assay: Inhibition of DNA-tagged human DDR2 assessed as percent of control at 50000 nM by qPCR analysis relative to control
[7] = target: Cyclin-dependent kinase-like 1 (Homo sapiens) (UniProt Q00532); assay: Inhibition of DNA-tagged human CDKL1 assessed as percent of control at 50000 nM by qPCR analysis relative to control
[8] = target: Cyclin-dependent kinase 13 (Homo sapiens) (UniProt Q14004); assay: Inhibition of DNA-tagged human CDC2L5 assessed as percent of control at 50000 nM by qPCR analysis relative to control
[9] = target: Cyclin-dependent kinase 11B (Homo sapiens) (UniProt P21127); assay: Inhibition of DNA-tagged human CDC2L1 assessed as percent of control at 50000 nM by qPCR analysis relative to control
[10] = target: Serine/threonine-protein kinase BRSK1 (Homo sapiens) (UniProt Q8TDC3); assay: Inhibition of DNA-tagged human BRSK1 assessed as percent of control at 50000 nM by qPCR analysis relative to control
Sequence of Serine/threonine-protein kinase BRSK1 (Homo sapiens) (Q8TDC3 whole entry): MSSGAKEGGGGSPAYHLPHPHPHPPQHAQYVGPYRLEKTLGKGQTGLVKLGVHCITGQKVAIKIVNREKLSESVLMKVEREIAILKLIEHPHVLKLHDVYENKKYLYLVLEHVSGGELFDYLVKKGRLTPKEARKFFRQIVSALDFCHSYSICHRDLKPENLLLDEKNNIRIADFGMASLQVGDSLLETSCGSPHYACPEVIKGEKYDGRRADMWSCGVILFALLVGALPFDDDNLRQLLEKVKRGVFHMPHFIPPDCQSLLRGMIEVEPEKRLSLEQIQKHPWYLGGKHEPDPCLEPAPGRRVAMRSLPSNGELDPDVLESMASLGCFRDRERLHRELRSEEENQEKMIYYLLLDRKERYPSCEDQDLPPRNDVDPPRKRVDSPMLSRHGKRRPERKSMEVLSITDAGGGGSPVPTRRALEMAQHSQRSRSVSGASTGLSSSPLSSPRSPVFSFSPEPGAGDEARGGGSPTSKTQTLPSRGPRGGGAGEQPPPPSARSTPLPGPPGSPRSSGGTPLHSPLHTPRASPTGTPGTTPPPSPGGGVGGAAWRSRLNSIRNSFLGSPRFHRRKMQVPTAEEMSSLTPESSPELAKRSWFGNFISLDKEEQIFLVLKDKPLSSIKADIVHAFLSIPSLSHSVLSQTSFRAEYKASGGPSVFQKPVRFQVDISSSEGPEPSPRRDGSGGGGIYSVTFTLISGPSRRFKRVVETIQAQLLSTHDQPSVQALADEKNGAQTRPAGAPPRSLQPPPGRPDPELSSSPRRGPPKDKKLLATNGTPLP

[11] = target: Activin receptor type-1 (Homo sapiens) (UniProt Q04771); assay: Inhibition of DNA-tagged human ACVR1 assessed as percent of control at 50000 nM by qPCR analysis relative to control
[12] = test system: Mast/stem cell growth factor receptor Kit (Homo sapiens), P10721 [V559D]; assay: Inhibition of DNA-tagged human KIT V559D mutant assessed as percent of control at 50000 nM by qPCR analysis relative to control
[13] = target: LIM domain kinase 2 (Homo sapiens) (UniProt P53671); assay: Inhibition of DNA-tagged human LIMK2 assessed as percent of control at 50000 nM by qPCR analysis relative to control
Sequence of LIM domain kinase 2 (Homo sapiens) (P53671 whole entry, looked up, the tested form may be a part): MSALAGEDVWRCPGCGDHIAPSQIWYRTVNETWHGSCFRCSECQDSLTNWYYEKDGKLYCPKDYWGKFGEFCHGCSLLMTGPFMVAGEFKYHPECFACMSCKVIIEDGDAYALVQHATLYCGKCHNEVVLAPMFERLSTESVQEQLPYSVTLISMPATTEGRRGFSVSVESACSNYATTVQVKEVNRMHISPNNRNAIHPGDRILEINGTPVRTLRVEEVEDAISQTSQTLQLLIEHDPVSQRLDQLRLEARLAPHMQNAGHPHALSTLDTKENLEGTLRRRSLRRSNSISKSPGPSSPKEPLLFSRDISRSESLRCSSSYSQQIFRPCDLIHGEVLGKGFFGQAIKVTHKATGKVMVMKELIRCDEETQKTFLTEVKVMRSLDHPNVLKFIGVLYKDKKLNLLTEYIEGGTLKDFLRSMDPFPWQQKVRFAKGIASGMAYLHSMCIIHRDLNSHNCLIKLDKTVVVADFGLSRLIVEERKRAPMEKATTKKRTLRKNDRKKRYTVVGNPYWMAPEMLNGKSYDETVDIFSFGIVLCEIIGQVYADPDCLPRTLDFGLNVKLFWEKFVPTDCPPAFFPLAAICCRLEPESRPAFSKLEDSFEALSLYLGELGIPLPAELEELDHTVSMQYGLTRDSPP

[14] = test system: Leucine-rich repeat serine/threonine-protein kinase 2 (Homo sapiens), Q5S007 [G2019S]; assay: Inhibition of DNA-tagged human LRRK2 G2019S mutant assessed as percent of control at 50000 nM by qPCR analysis relative to control
[15] = target: Mitogen-activated protein kinase kinase kinase kinase 4 (Homo sapiens) (UniProt O95819); assay: Inhibition of DNA-tagged human MAP4K4 assessed as percent of control at 50000 nM by qPCR analysis relative to control
[16] = target: Dual specificity mitogen-activated protein kinase kinase 2 (Homo sapiens) (UniProt P36507); assay: Inhibition of DNA-tagged human MEK2 assessed as percent of control at 50000 nM by qPCR analysis relative to control
[17] = test system: Hepatocyte growth factor receptor (Homo sapiens), P08581 [M1250T]; assay: Inhibition of DNA-tagged human MET M1250T mutant assessed as percent of control at 50000 nM by qPCR analysis relative to control
[18] = target: Serine/threonine-protein kinase MRCK beta (Homo sapiens) (UniProt Q9Y5S2); assay: Inhibition of DNA-tagged human MRCKB assessed as percent of control at 50000 nM by qPCR analysis relative to control
[19] = target: Serine/threonine-protein kinase 24 (Homo sapiens) (UniProt Q9Y6E0); assay: Inhibition of DNA-tagged human MST3 assessed as percent of control at 50000 nM by qPCR analysis relative to control
Sequence of Serine/threonine-protein kinase 24 (Homo sapiens) (Q9Y6E0 whole entry, looked up): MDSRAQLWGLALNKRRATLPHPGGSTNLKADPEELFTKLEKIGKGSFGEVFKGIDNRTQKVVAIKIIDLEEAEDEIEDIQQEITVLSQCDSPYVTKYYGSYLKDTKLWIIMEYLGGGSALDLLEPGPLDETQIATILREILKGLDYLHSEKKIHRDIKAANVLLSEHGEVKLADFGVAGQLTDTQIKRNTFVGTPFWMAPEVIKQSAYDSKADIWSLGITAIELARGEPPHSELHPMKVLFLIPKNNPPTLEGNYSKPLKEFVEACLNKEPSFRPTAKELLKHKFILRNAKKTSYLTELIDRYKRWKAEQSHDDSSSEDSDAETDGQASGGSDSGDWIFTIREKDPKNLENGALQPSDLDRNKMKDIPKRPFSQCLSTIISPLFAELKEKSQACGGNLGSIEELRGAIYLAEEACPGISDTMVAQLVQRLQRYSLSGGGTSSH

[20] = target: Myosin-IIIb (Homo sapiens) (UniProt Q8WXR4); assay: Inhibition of DNA-tagged human MYO3B assessed as percent of control at 50000 nM by qPCR analysis relative to control
[21] = target: Serine/threonine-protein kinase Nek11 (Homo sapiens) (UniProt Q8NG66); assay: Inhibition of DNA-tagged human NEK11 assessed as percent of control at 50000 nM by qPCR analysis relative to control
Sequence of Serine/threonine-protein kinase Nek11 (Homo sapiens) (Q8NG66 whole entry): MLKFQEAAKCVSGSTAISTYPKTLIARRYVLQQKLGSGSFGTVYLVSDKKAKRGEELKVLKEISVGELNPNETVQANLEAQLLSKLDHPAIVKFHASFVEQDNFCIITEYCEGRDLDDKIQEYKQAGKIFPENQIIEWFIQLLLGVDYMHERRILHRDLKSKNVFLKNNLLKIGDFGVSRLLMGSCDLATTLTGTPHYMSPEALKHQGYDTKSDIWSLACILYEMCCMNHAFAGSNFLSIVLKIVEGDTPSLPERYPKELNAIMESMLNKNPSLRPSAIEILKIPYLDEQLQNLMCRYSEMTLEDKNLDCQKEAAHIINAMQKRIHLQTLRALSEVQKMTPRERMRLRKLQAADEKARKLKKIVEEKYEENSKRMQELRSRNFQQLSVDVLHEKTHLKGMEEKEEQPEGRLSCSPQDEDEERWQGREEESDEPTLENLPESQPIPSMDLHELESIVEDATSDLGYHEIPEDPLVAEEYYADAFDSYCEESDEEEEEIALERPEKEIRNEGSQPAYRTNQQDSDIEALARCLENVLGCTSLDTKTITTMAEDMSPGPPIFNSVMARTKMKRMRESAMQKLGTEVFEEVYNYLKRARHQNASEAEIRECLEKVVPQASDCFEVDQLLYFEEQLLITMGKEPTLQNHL

[22] = target: Serine/threonine-protein kinase pim-2 (Homo sapiens) (UniProt Q9P1W9); assay: Inhibition of DNA-tagged human PIM2 assessed as percent of control at 50000 nM by qPCR analysis relative to control
Sequence of Serine/threonine-protein kinase pim-2 (Homo sapiens) (Q9P1W9 whole entry, looked up): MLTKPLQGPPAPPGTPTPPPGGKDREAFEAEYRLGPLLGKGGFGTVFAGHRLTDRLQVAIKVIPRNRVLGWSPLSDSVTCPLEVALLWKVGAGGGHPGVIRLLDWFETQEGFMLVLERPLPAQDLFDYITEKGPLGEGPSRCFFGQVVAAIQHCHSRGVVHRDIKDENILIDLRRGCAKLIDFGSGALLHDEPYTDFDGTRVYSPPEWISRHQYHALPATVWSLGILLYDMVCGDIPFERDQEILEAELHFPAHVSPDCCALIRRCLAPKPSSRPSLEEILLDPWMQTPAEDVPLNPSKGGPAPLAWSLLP

[23] = target: Serine/threonine-protein kinase RIO1 (Homo sapiens) (UniProt Q9BRS2); assay: Inhibition of DNA-tagged human RIOK1 assessed as percent of control at 50000 nM by qPCR analysis relative to control
Sequence of Serine/threonine-protein kinase RIO1 (Homo sapiens) (Q9BRS2 whole entry): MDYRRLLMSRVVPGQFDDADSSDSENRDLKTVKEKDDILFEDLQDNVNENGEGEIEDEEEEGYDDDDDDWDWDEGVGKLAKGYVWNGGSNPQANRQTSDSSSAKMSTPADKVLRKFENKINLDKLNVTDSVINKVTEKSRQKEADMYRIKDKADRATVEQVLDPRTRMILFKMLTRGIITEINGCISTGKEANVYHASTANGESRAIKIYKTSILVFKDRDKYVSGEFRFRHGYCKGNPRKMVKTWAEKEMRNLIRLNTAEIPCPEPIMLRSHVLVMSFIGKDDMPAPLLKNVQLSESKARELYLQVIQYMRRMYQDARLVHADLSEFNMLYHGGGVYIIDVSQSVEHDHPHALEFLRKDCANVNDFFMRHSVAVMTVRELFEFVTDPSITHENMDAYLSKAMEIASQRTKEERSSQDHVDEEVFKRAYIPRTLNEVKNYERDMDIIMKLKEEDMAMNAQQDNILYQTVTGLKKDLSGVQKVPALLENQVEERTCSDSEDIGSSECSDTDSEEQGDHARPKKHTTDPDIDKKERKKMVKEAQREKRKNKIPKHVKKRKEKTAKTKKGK

[24] = target: Proto-oncogene tyrosine-protein kinase ROS (Homo sapiens) (UniProt P08922); assay: Inhibition of DNA-tagged human ROS1 assessed as percent of control at 50000 nM by qPCR analysis relative to control
[25] = target: Ribosomal protein S6 kinase alpha-5 (Homo sapiens) (UniProt O75582); assay: Inhibition of DNA-tagged human N-terminal RPS6KA5 kinase domain 1 assessed as percent of control at 50000 nM by qPCR analysis relative to control
[26] = target: Ribosomal protein S6 kinase beta-1 (Homo sapiens) (UniProt P23443); assay: Inhibition of DNA-tagged human S6K1 assessed as percent of control at 50000 nM by qPCR analysis relative to control
[27] = target: Serine/threonine-protein kinase SIK1 (Homo sapiens) (UniProt P57059); assay: Inhibition of DNA-tagged human SIK assessed as percent of control at 50000 nM by qPCR analysis relative to control
[28] = target: SNF-related serine/threonine-protein kinase (Homo sapiens) (UniProt Q9NRH2); assay: Inhibition of DNA-tagged human SNRK assessed as percent of control at 50000 nM by qPCR analysis relative to control
[29] = target: Dual specificity protein kinase TTK (Homo sapiens) (UniProt P33981); assay: Inhibition of DNA-tagged human TTK assessed as percent of control at 50000 nM by qPCR analysis relative to control
[30] = target: Serine/threonine-protein kinase ULK3 (Homo sapiens) (UniProt Q6PHR2); assay: Inhibition of DNA-tagged human ULK3 assessed as percent of control at 50000 nM by qPCR analysis relative to control

`CN1C(=O)/C(=C2/C(=O)Nc3ccccc32)c2ccccc21` showed an Activity [1] of 100%, an Activity [2] of 89% and an Activity [3] of 95%. It also gave an Activity [4] of 64%, an Activity [5] of 100% and an Activity [6] of 86%. It also gave an Activity [7] of 79%, an Activity [8] of 100% and an Activity [9] of 87%. For the same compound, the Activity [10] was 94%, the Activity [11] was 99% and the Activity [12] was 91%. It also gave an Activity [13] of 100%, an Activity [14] of 74% and an Activity [15] of 100%. The Activity [16] was 89%, the Activity [17] was 80% and the Activity [18] was 83%. It also gave an Activity [19] of 88%, an Activity [20] of 100% and an Activity [21] of 100%. For the same compound, the Activity [22] was 100%, the Activity [23] was 87% and the Activity [24] was 81%. The Activity [25] was 100%, the Activity [26] was 85% and the Activity [27] was 93%. The Activity [28] was 81%, the Activity [29] was 88% and the Activity [30] was 85%.
